Experimental data published in patent US8952024B2, “Herbicidal pyrimidone derivatives” (E I du Pont de Nemours and Company, priority 2009, dated 2015).

Assays:
Format in all cases: in vivo
[1] = tested on: green foxtail (Setaria viridis); experiment: Test B pre-/postemergence plant response; conditions: Postemergence
Procedure, shortened: (§1)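 Ratings reflect visual comparison with untreated controls 13 to 15 days after application, from 0 (no effect) to 100 (complete control). Application was preemergence to seeded loam/sand soil or postemergence to 1- to 4-leaf plants, with compound in a non-phytotoxic, surfactant-containing solvent.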

[2] = tested on: kochia (Kochia scoparia); experiment: Test B pre-/postemergence plant response; conditions: Postemergence
Procedure, shortened: as §1

[3] = tested on: corn (Zea mays); experiment: Test B pre-/postemergence plant response; conditions: Postemergence
Procedure, shortened: as §1

[4] = tested on: wild oat (Avena fatua); experiment: Test B pre-/postemergence plant response; conditions: Postemergence
Procedure, shortened: as §1

[5] = tested on: soybean (Glycine max); experiment: Test B pre-/postemergence plant response; conditions: Postemergence
Procedure, shortened: as §1

[6] = tested on: ragweed (common ragweed, Ambrosia elatior); experiment: Test B pre-/postemergence plant response; conditions: Postemergence
Procedure, shortened: as §1

[7] = tested on: bermudagrass (Cynodon dactylon); experiment: Test B pre-/postemergence plant response; conditions: for Plant response rating, Bermudagrass: Postemergence
Procedure, shortened: as §1

[8] = tested on: lambsquarters (Chenopodium album); experiment: Test B pre-/postemergence plant response; conditions: Postemergence
Procedure, shortened: as §1

[9] = tested on: pigweed (Amaranthus retroflexus); experiment: Test B pre-/postemergence plant response; conditions: Postemergence
Procedure, shortened: as §1

[10] = tested on: johnsongrass (Sorghum halepense); experiment: Test B pre-/postemergence plant response; conditions: Postemergence
Procedure, shortened: as §1

[11] = tested on: giant foxtail (Setaria faberii); experiment: Test B pre-/postemergence plant response; conditions: Postemergence
Procedure, shortened: as §1

[12] = tested on: cocklebur (Xanthium strumarium); experiment: Test B pre-/postemergence plant response; conditions: Postemergence
Procedure, shortened: as §1

[13] = tested on: barnyardgrass (Echinochloa crus-galli); experiment: Test B flooded paddy test; conditions: for Plant response rating, Barnyardgrass: Flood (flooded paddy test), 13 to 15 days; for Barnyardgrass plant response rating: Flood, 31 g ai/ha, scale 0 to 100 (0 no effect, 100 complete control)
Procedure, shortened: (§2)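 Plants were grown to the 2-leaf stage, then pots were flooded to 3 cm above the soil and compounds were applied directly into the paddy water. That depth was held throughout. After 13 to 15 days in a greenhouse, injury was visually rated against controls on a 0–100 scale.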

[14] = tested on: ducksalad (Heteranthera limosa); experiment: Test B flooded paddy test; conditions: for Plant response rating, Ducksalad: Flood (flooded paddy test), 13 to 15 days; for Ducksalad plant response rating: Flood, 31 g ai/ha, scale 0 to 100 (0 no effect, 100 complete control)
Procedure, shortened: as §2

[15] = tested on: rice (Oryza sativa); experiment: Test B flooded paddy test; conditions: for Plant response rating, Rice: Flood (flooded paddy test), 13 to 15 days; for Rice plant response rating: Flood, 31 g ai/ha, scale 0 to 100 (0 no effect, 100 complete control)
Procedure, shortened: as §2

[16] = tested on: umbrella sedge (Cyperus difformis); experiment: Test B flooded paddy test; conditions: for Plant response rating, Sedge, Umbrella: Flood (flooded paddy test), 13 to 15 days; for Sedge, Umbrella plant response rating: Flood, 31 g ai/ha, scale 0 to 100 (0 no effect, 100 complete control)
Procedure, shortened: as §2

[17] = 31 g ai/ha, 0 to 100 scale (0 no effect, 100 complete control)
[18] = 125 g ai/ha, scale 0 to 100 (0 no effect, 100 complete control)
[19] = 250 g ai/ha, scale 0 to 100 (0 no effect, 100 complete control), 13 to 15 days
[20] = 125 g ai/ha, scale 0 to 100, 0 is no effect, 100 is complete control
[21] = 62 g ai/ha, scale 0 to 100 (0 no effect, 100 complete control)
[22] = 250 g ai/ha, flooded paddy test, visual rating on 0 to 100 scale (0 no effect, 100 complete control) after 13 to 15 days
[23] = 62 g ai/ha, scale of 0 to 100 where 0 is no effect and 100 is complete control

CCCn1c(-c2cc(Cl)cc(Cl)c2)ncc(C(=O)C2=C(O)CCCC2=O)c1=O [Compound 173]
Plant response rating, Foxtail, Green [1, 17]: 55
Plant response rating, Foxtail, Green [1, 18]: 90
Plant response rating, Foxtail, Green [1, 19]: 90
Plant response rating, Kochia [2, 17]: 65
Plant response rating, Kochia [2, 18]: 98
Plant response rating, Kochia [2, 19]: 100
Plant response rating, Corn [3, 17]: 5
Plant response rating, Corn [3, 18]: 60
Plant response rating, Corn [3, 19]: 85
Plant response rating, Oat, Wild [4, 17]: 50
Plant response rating, Oat, Wild [4, 18]: 70
Plant response rating, Oat, Wild [4, 19]: 85
Plant response rating, Soybean [5, 17]: 60
Plant response rating, Soybean [5, 18]: 95
Plant response rating, Soybean [5, 19]: 100
Plant response rating, Ragweed [6, 17]: 55
Plant response rating, Ragweed [6, 18]: 90
Plant response rating, Ragweed [6, 19]: 98
Bermudagrass plant response rating (0 to 100 scale) ([7]; 62 g ai/ha, postemergence, 0 is no effect, 100 is complete control, 13 to 15 days): 98
Plant response rating, Bermudagrass [7, 17]: 98
Plant response rating, Bermudagrass [7, 18]: 100
Plant response rating, Bermudagrass [7, 19]: 100
Plant response rating, Lambsquarters [8, 17]: 98
Plant response rating, Lambsquarters [8, 18]: 100
Plant response rating, Lambsquarters [8, 19]: 100
Plant response rating, Pigweed [9, 17]: 85
Plant response rating, Pigweed [9, 18]: 100
Plant response rating, Pigweed [9, 19]: 100
Plant response rating, Johnsongrass [10, 17]: 65
Plant response rating, Johnsongrass [10, 18]: 95
Plant response rating, Foxtail, Giant [11, 17]: 95
Plant response rating, Foxtail, Giant [11, 18]: 100
Plant response rating, Foxtail, Giant [11, 19]: 100
Plant response rating, Cocklebur [12, 17]: 60
Plant response rating, Cocklebur [12, 18]: 100
Plant response rating, Cocklebur [12, 19]: 100
Plant response rating, Barnyardgrass [13, 20]: 15
Barnyardgrass plant response rating [13]: 0
Plant response rating, Ducksalad [14, 20]: 75
Ducksalad plant response rating [14]: 30
Plant response rating, Rice [15, 20]: 15
Rice plant response rating [15]: 0
Plant response rating, Sedge, Umbrella [16, 20]: 85
Sedge, Umbrella plant response rating [16]: 0

CCn1c(-c2cccc(F)c2)ncc(C(=O)C2=C(O)C3CCC(C3)C2=O)c1=O (stereo not shown) [Compound 236]
Plant response rating, Foxtail, Green [1, 17]: 80
Plant response rating, Foxtail, Green [1, 18]: 98
Plant response rating, Foxtail, Green [1, 19]: 98
Plant response rating, Foxtail, Green [1, 21]: 95
Plant response rating, Kochia [2, 17]: 80
Plant response rating, Kochia [2, 18]: 100
Plant response rating, Kochia [2, 19]: 100
Plant response rating, Kochia [2, 21]: 98
Plant response rating, Corn [3, 17]: 15
Plant response rating, Corn [3, 18]: 70
Plant response rating, Corn [3, 21]: 60
Plant response rating, Oat, Wild [4, 17]: 0
Plant response rating, Oat, Wild [4, 19]: 60
Plant response rating, Oat, Wild [4, 21]: 0
Plant response rating, Soybean [5, 17]: 90
Plant response rating, Soybean [5, 19]: 100
Plant response rating, Soybean [5, 21]: 98
Plant response rating, Ragweed [6, 17]: 80
Plant response rating, Ragweed [6, 19]: 98
Plant response rating, Ragweed [6, 21]: 95
Plant response rating, Bermudagrass [7, 17]: 95
Plant response rating, Bermudagrass [7, 18]: 98
Plant response rating, Bermudagrass [7, 21]: 98
Plant response rating, Lambsquarters [8, 17]: 98
Plant response rating, Lambsquarters [8, 18]: 100
Plant response rating, Lambsquarters [8, 19]: 100
Plant response rating, Lambsquarters [8, 21]: 100
Plant response rating, Pigweed [9, 17]: 85
Plant response rating, Pigweed [9, 21]: 85
Plant response rating, Johnsongrass [10, 17]: 0
Plant response rating, Johnsongrass [10, 18]: 20
Plant response rating, Johnsongrass [10, 19]: 55
Plant response rating, Johnsongrass [10, 21]: 15
Plant response rating, Foxtail, Giant [11, 17]: 75
Plant response rating, Foxtail, Giant [11, 18]: 95
Plant response rating, Foxtail, Giant [11, 19]: 98
Plant response rating, Foxtail, Giant [11, 21]: 80
Plant response rating, Cocklebur [12, 18]: 100
Plant response rating, Cocklebur [12, 19]: 100
Plant response rating, Cocklebur [12, 21]: 100
Plant response rating, Flood, Barnyardgrass [13, 22]: 20
Plant response rating, Barnyardgrass [13, 23]: 0
Plant response rating, Barnyardgrass [13, 20]: 0
Barnyardgrass plant response rating [13]: 0
Plant response rating, Flood, Ducksalad [14, 22]: 70
Plant response rating, Ducksalad [14, 23]: 0
Plant response rating, Ducksalad [14, 20]: 60
Ducksalad plant response rating [14]: 0
Plant response rating, Flood, Rice [15, 22]: 0
Plant response rating, Rice [15, 23]: 0
Plant response rating, Rice [15, 20]: 0
Rice plant response rating [15]: 0
Plant response rating, Flood, Sedge, Umbrella [16, 22]: 40
Plant response rating, Sedge, Umbrella [16, 23]: 0
Plant response rating, Sedge, Umbrella [16, 20]: 0
Sedge, Umbrella plant response rating [16]: 0
